According to patent US20260374754A1, “N-((ISOQUINOLIN-6-YL)METHYL)-1H-PYRAZOLE-4-CARBOXAMIDE DERIVATIVES AS PLASMA KALLIKREIN INHIBITORS FOR THE TREATMENT OF HEREDITARY ANGIODEMA” (Takeda Pharmaceutical Company Limited, priority 2022, published 2026):
Where a name gives a salt, the structure may show the parent alone.

What was measured:
[1] = molecular target: human activated kallikrein enzyme (Homo sapiens, UniProt P03952); assay: Inhibition of human activated plasma kallikrein, fluorogenic PFR-AMC substrate, 500 pM enzyme format; type: biochemical; settings: 500 pM activated kallikrein; 300 μM PFR-AMC; 30 min preincubation; 10 min room temperature; pH 7.5; read-out: Primary Dose Response Assay: Average EC50
Chain of human activated kallikrein enzyme (P03952 391-638 limits assumed): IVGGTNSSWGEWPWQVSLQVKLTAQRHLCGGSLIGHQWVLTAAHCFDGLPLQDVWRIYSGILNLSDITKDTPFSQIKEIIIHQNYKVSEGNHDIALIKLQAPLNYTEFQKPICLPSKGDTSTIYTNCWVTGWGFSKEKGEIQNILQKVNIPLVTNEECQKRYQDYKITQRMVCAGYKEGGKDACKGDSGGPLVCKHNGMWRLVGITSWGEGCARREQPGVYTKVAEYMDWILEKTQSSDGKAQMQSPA
Chain of human activated kallikrein enzyme (P03952 20-390 partner limits assumed): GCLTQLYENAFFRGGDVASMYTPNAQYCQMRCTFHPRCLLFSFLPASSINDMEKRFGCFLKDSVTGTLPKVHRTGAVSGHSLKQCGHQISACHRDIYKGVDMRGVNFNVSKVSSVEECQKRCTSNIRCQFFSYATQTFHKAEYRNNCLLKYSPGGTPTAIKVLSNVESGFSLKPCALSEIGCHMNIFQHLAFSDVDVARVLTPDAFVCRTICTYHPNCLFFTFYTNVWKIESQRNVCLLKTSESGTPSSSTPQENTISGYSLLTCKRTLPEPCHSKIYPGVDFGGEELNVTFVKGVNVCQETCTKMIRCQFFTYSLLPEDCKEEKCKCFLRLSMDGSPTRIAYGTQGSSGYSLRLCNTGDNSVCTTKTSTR
How it was run: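 Using fluorogenic PFR-AMC at 300 μM, cleavage by 500 pM human activated kallikrein ran 10 min at room temperature, read at 460 nm emission (380 nm excitation). Enzyme and compounds were first preincubated 30 min in 20 mM Tris pH 7.5, 150 mM NaCl, 1 mM EDTA, 0.1% PEG-400, 0.1% Triton X-100.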

plasma kallikrein = molecular target: T1, plasma kallikrein (Homo sapiens, UniProt P03952); assay: Neat Human Plasma Assay (Fluorogenic Peptide), contact pathway-activated (FXIIa) plasma; type: biochemical; settings: human citrated plasma 78% final; 10 nM human FXIIa; PFR-AMC substrate; 5 minutes; room temperature
T1 construct: PFR-AMC substrate
T1 sequence (P03952 20-638): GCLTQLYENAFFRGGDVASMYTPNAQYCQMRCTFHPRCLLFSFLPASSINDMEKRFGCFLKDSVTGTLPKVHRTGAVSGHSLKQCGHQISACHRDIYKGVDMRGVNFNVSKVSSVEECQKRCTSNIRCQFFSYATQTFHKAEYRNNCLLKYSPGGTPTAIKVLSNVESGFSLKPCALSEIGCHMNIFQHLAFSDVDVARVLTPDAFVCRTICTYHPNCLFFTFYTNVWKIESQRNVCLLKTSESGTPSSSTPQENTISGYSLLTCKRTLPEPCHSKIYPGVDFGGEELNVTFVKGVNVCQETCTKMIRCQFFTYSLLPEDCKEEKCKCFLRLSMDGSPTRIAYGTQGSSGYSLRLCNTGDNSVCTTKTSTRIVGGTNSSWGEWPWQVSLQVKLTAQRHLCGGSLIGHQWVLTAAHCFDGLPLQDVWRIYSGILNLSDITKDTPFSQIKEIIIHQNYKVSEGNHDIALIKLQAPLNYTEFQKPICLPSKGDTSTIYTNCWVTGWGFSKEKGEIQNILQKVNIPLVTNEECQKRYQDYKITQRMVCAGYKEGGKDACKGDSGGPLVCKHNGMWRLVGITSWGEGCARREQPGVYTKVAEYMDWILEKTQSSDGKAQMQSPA
Method: To analyze inhibition of plasma kallikrein in an ex vivo setting, the potency of compounds was measure in contact pathway-activated plasma assays. In a fluorogenic peptide substrate assay, test compounds dissolved in DMSO were added to sodium citrate collected human or rat plasma in a 96-well microplate. Alternatively, citrated plasma was collected from rats administered the compounds orally or by IV. 10 nM of human FXIIa (Enzyme Research Laboratories) diluted in PKa buffer (20 mM Tris-HCl, pH 7.5, 150 mM NaCl, 1 mM EDTA, 0.1% PEG-8000, and 0.1% Triton X-100) was added to the plasma, followed by the […] of the profluorescent, synthetic plasma kallikrein substrate PFR-AMC (also diluted in PKa buffer). Final plasma concentration in the reaction was 78%. Fluorescence was immediately monitored by excitation/emission wavelengths of 360 nm/480 nm respectively over a period of 5 minutes in a microplate reader. The resulting linear increase in fluorescence emission (reflecting PKa proteolysis of PFR-AMC substrate) was fit to extract a proteolytic rate (fluorescent units over time), and this rate was subsequently plotted against compound inhibitor concentration. Resulting plots were fit to a standard 4-parameter IC50/IC90 equation to determine min/max values, IC50/90, and slope. All experimental steps were performed at room temperature.

EC50 [1] [µM]	IC90 (plasma kallikrein) [µM]	Compound
< 0.001	≤ 1	Cc1cc2c(N)nccc2c(C)c1CNc1cc(OCc2cn3cc(C4CC4)cnc3n2)ncn1 [Example 262, 6-(((6-((6-cyclopropylimidazo[1,2-a]pyrimidin-2-yl)methoxy)pyrimidin-4-yl)amino)methyl)-5,7-dimethylisoquinolin-1-amine]
< 0.001	> 5	Cc1cc2c(N)nccc2c(C)c1CNc1nccc2nc(Cc3cn4cc(C5CC5)ccc4n3)[nH]c12 [Example 500, 6-(((2-((6-cyclopropylimidazo[1,2-a]pyridin-2-yl)methyl)-3H-imidazo[4,5-c]pyridin-4-yl)amino)methyl)-5,7-dimethylisoquinolin-1-amine]
0.001 to 0.01	> 5	Cc1cc2c(N)nccc2c(C)c1CNc1cc(OCc2cc(C#N)c3ncc(Cl)cc3c2)ncn1 [Example 398, 6-(((6-(((1-amino-5,7-dimethylisoquinolin-6-yl)methyl)amino)pyrimidin-4-yl)oxy)methyl)-3-chloroquinoline-8-carbonitrile]
< 0.001	1 to 5	Cc1cc2c(N)nccc2c(C)c1CNc1cc(NCc2ccc3ncc(C4CC4)cc3c2)ncn1 [Example 314, N^4-((1-amino-5,7-dimethylisoquinolin-6-yl)methyl)-N^6-((3-cyclopropylquinolin-6-yl)methyl)pyrimidine-4,6-diamine]
0.001 to 0.01	1 to 5	Cc1cc2c(N)nccc2c(C)c1CNc1cc2c(cn1)c(F)cn2Cc1cn2cc(C3CC3)ccc2n1 [Example 285, 6-(((1-((6-cyclopropylimidazo[1,2-a]pyridin-2-yl)methyl)-3-fluoro-1H-pyrrolo[3,2-c]pyridin-6-yl)amino)methyl)-5,7-dimethylisoquinolin-1-amine]
< 0.001	≤ 1	Cc1cc2c(N)nccc2c(C)c1CNc1cc(OCc2cn3cc(C4CC4)cc(N4CCCC4=O)c3n2)ncn1 [Example 259, 1-(2-(((6-(((1-amino-5,7-dimethylisoquinolin-6-yl)methyl)amino)pyrimidin-4-yl)oxy)methyl)-6-cyclopropylimidazo[1,2-a]pyridin-8-yl)pyrrolidin-2-one]
0.001 to 0.01	> 5	Cc1cc2c(N)nccc2c(C)c1CNc1cc(OCc2cc3cc(C4CC4)cc(CCC(C)(C)O)n3n2)ncn1 [Example 508, 4-(2-(((6-(((1-amino-5,7-dimethylisoquinolin-6-yl)methyl)amino)pyrimidin-4-yl)oxy)methyl)-5-cyclopropylpyrazolo[1,5-a]pyridin-7-yl)-2-methylbutan-2-ol]
< 0.001	1 to 5	Cc1cnc2ccc(COc3cnnc(NCc4c(C)cc5c(N)nccc5c4C)c3)cc2c1 [Example 416, 5,7-dimethyl-6-(((5-((3-methylquinolin-6-yl)methoxy)pyridazin-3-yl)amino)methyl)isoquinolin-1-amine]
< 0.001	1 to 5	Cc1cc2c(N)nccc2c(C)c1CNc1cc(SCc2cn3cc(C4CC4)ccc3n2)ncn1 [Example 290, 6-(((6-(((6-cyclopropylimidazo[1,2-a]pyridin-2-yl)methyl)thio)pyrimidin-4-yl)amino)methyl)-5,7-dimethylisoquinolin-1-amine]
< 0.001	1 to 5	Cc1cc2c(N)nccc2c(C)c1CNC(=O)c1cnn(Cc2ccc(CC(=O)N3CC4CC4C3)cc2)c1 (stereo not shown) [Example 222, 1-(4-(2-(3-azabicyclo[3.1.0]hexan-3-yl)-2-oxoethyl)benzyl)-N-((1-amino-5,7-dimethylisoquinolin-6-yl)methyl)-1H-pyrazole-4-carboxamide]
< 0.001	≤ 1	Cc1cc2c(N)nccc2c(C)c1CNC(=O)c1ccnc(Cc2cn3cc(C4CC4)ccc3n2)c1 [Example 514, N-((1-amino-5,7-dimethylisoquinolin-6-yl)methyl)-2-((6-cyclopropylimidazo[1,2-a]pyridin-2-yl)methyl)isonicotinamide]
< 0.001	1 to 5	Cc1ccc2cc(Cn3ccc4nnc(NCc5c(C)cc6c(N)nccc6c5C)cc43)ccc2n1 [Example 515, 5,7-dimethyl-6-(((5-((2-methylquinolin-6-yl)methyl)-5H-pyrrolo[3,2-c]pyridazin-3-yl)amino)methyl)isoquinolin-1-amine]
< 0.001	1 to 5	Cc1cc2c(N)nccc2c(C)c1CNc1cc(OCc2ccc(Cn3cccn3)cc2)cnn1 [Example 432, 6-(((5-((4-((1H-pyrazol-1-yl)methyl)benzyl)oxy)pyridazin-3-yl)amino)methyl)-5,7-dimethylisoquinolin-1-amine]
< 0.001	≤ 1	N-((1-amino-5,7-dimethylisoquinolin-6-yl)methyl)-1-(4-((2-oxopyridin-1(2H)-y1)methyl)benzyl)-1H-1,2,3-triazole-4-carboxamide [Example 186]
0.001 to 0.01	> 5	Cc1cc2c(N)nccc2c(C)c1CNc1cc(OCc2cn3cc(C4CC4)ccc3n2)c(Cl)cn1 [Example 280, 6-(((5-chloro-4-((6-cyclopropylimidazo[1,2-a]pyridin-2-yl)methoxy)pyridin-2-yl)amino)methyl)-5,7-dimethylisoquinolin-1-amine]
0.001 to 0.01	1 to 5	Cc1ccc2cc(COc3cc(NCc4c(C)cc5c(N)nccc5c4C)ncn3)ccc2n1 [Example 371, 5,7-dimethyl-6-(((6-((2-methylquinolin-6-yl)methoxy)pyrimidin-4-yl)amino)methyl)isoquinolin-1-amine]
0.001 to 0.01	> 5	Cc1cc2c(N)nccc2c(C)c1CNc1cc(OCc2cc3cc(C4CC4)cnc3s2)ncn1 [Example 281, 6-(((6-((5-cyclopropylthieno[2,3-b]pyridin-2-yl)methoxy)pyrimidin-4-yl)amino)methyl)-5,7-dimethylisoquinolin-1-amine]
0.001 to 0.01	> 5	Cc1cc2c(N)nccc2c(C)c1CNc1cc(OCc2ccc3ncc(C4CC4)cc3c2)ncn1 [Example 386, 6-(((6-((3-cyclopropylquinolin-6-yl)methoxy)pyrimidin-4-yl)amino)methyl)-5,7-dimethylisoquinolin-1-amine]
< 0.001	≤ 1	Cc1cc2c(N)nccc2c(C)c1CNC(=O)c1cnn(Cc2ccc(Cn3ccccc3=O)cc2)c1 [Example 192, N-((1-amino-5,7-dimethylisoquinolin-6-yl)methyl)-1-(4-((2-oxopyridin-1(2H)-y1)methyl)benzyl)-1H-pyrazole-4-carboxamide]
< 0.001	1 to 5	Cc1cc2c(N)nccc2c(C)c1CNc1cc(OCc2ccc3ncc(C4CC4)cc3c2)cnn1 [Example 422, 6-(((5-((3-cyclopropylquinolin-6-yl)methoxy)pyridazin-3-yl)amino)methyl)-5,7-dimethylisoquinolin-1-amine]
< 0.001	≤ 1	Cc1cc2c(N)nccc2c(C)c1CNc1cc2c(ccn2Cc2ccc(Cn3cccn3)cc2)nn1 [Example I-457, 6-(((5-(4-((1H-pyrazol-1-yl)methyl)benzyl)-5H-pyrrolo[3,2-c]pyridazin-3-yl)amino)methyl)-5,7-dimethylisoquinolin-1-amine]
< 0.001	1 to 5	Cc1cc2c(N)nccc2c(C)c1CNc1cc(OCc2cn3cc(C4CC4)ccc3n2)cnn1 [Example 426, 6-(((5-((6-cyclopropylimidazo[1,2-a]pyridin-2-yl)methoxy)pyridazin-3-yl)amino)methyl)-5,7-dimethylisoquinolin-1-amine, formic acid salt]
< 0.001	> 5	Cc1cc2c(N)nccc2c(C)c1CNc1cc(OCc2cn3cc(C4CC4)ccc3n2)ncn1 [Example 305, 6-(((6-((6-cyclopropylimidazo[1,2-a]pyridin-2-yl)methoxy)pyrimidin-4-yl)amino)methyl)-5,7-dimethylisoquinolin-1-amine]
< 0.001	≤ 1	Cc1cc2c(N)nccc2c(C)c1CNC(=O)c1cnn(Cc2cn3cc(Cl)ccc3n2)c1 [Example 101, N-((1-amino-5,7-dimethylisoquinolin-6-yl)methyl)-1-((6-chloroimidazo[1,2-a]pyridin-2-yl)methyl)-1H-pyrazole-4-carboxamide]
0.001 to 0.01	> 5	Cc1cc2c(N)nccc2c(C)c1CNC(=O)c1cn(Cc2ccc(N3CCCC3)nc2)nc1C(F)(F)F [Example 194, N-((1-amino-5,7-dimethylisoquinolin-6-yl)methyl)-1-((6-(pyrrolidin-1-yl)pyridin-3-yl)methyl)-3-(trifluoromethyl)-1H-pyrazole-4-carboxamide]
< 0.001	≤ 1	Cc1cc2c(N)nccc2c(C)c1CNc1nccc2nn(Cc3cn4cc(C5CC5)ccc4n3)cc12 [Example 267, 6-(((2-((6-cyclopropylimidazo[1,2-a]pyridin-2-yl)methyl)-2H-pyrazolo[4,3-c]pyridin-4-yl)amino)methyl)-5,7-dimethylisoquinolin-1-amine]
